What was measured:
[1] = tested on: TGFα-induced pulmonary fibrosis; assay: TGFα-induced pulmonary fibrosis in TGFα mice on Dox, lung gene expression; format: in vivo; settings: volasertib 30 mg/kg QD with Dox for five days
Text: FIG. 18. In vivo inhibition of PLK1 with volasertib attenuates ECM gene expression during TGFα-induced pulmonary fibrosis.
FIG. 19. In vivo inhibition of PLK1 with volasertib attenuates MYCN and PLK1 during TGFα induced pulmonary fibrosis.
FIG. 21. In vivo inhibition with volasertib attenuates ECM gene expression during TGFα-induced pulmonary fibrosis. *P<0.05.
(§1) Pharmacological inhibition of PLK1 attenuates the WT1-MYCN-PLK1 axis. […] To determine in vivo therapeutic effects of volasertib, TGFα mice were treated simultaneously with volasertib (30 mg/kg; QD) and Dox for five days, a period that leads to activation of WT1, MYCN and PLK1 in fibroblasts. […] Together, in vivo studies have established that inhibiting PLK1 is sufficient to attenuate the WT1-MYCN-PLK1 axis involved in fibroblast activation and pulmonary fibrosis.

PLK1 = PLK1 (Homo sapiens, UniProt P53350); settings: cited from earlier work
PLK1, sequence (P53350 whole entry, species assumed): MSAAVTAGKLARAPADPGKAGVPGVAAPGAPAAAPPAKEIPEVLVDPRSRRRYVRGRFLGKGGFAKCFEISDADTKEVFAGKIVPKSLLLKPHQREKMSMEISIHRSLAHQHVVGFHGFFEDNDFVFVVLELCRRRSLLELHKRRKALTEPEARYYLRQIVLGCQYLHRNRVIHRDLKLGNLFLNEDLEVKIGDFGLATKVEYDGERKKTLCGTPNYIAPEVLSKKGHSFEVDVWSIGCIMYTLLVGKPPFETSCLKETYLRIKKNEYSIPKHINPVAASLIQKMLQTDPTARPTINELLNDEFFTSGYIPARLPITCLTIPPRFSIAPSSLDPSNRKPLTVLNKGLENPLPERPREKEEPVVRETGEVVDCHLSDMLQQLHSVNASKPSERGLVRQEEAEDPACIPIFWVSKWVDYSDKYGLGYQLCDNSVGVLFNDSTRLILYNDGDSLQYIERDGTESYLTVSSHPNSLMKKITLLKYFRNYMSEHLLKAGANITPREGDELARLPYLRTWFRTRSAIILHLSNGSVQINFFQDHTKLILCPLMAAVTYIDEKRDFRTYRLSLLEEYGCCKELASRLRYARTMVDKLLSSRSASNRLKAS

IPF fibroblasts [2] = assay: ECM-associated gene transcripts in IPF fibroblasts by RT-PCR; format: cell-based, human; settings: vehicle or volasertib for 16 hours, FIG. 16
Description: FIG. 16. Inhibition of PLK1 using volasertib attenuates ECM gene expression. IPF fibroblasts were treated with vehicle or volasertib for 16 hours and ECM-associated gene transcripts Col1α, Col3α1, FN1, and αSMA) were measured using RT-PCR. *p<0.05.
as §1

[3] = H&E stainings for toxicity in volasertib-treated TGFα mice; format: in vivo; settings: at the doses tested (30 mg/kg QD, five days), data not shown
Description: as §1

[4] = tested on: severe fibrotic lung disease; assay: Therapeutic efficacy against severe fibrotic lung disease in two alternative mouse models (TGFα transgenic, repeated bleomycin); format: in vivo; settings: compared to FDA-approved nintedanib therapy
Text: WT1-driven anti-apoptotic genes (BCL3, BCL2L1, etc.), MYCN, and PLK1 were previously unknown to have a role in the pathogenesis of lung scarring, in fibroproliferation, FMT, survival, and ECM production. […] A novel clinical application for volasertib in the area of pulmonary fibrosis may include volasertib therapy to prevent progression or reverse established fibrotic lung disease. Applicant's studies utilize a novel transgenic mouse model in which the pro-fibrotic growth factor TGFα is selectively and temporally overexpressed in the lung epithelium, resulting in progressive subpleural scarring, similar to the pattern seen in human IPF, and an alternative mouse model of fibrosis using repeated doses of bleomycin. Applicant's data provide compelling support that inhibiting the MYCN-PLK1 axis may be effective in arresting fibrotic lung remodeling, and may be used in patients with pulmonary fibrosis.

IPF fibroblasts [5] = assay: CDK4 gene expression in IPF fibroblasts by RT-PCR; format: cell-based, human; settings: vehicle or volasertib for 16 hours, FIG. 20
[6] = tested on: WT1-MYCN-PLK1 axis in IPF fibroblasts; assay: PLK1, MYCN and WT1 protein levels in IPF fibroblast lysates by western blot; format: cell-based, human; settings: volasertib 1 μM for 48 hours, western blot normalized to GAPDH, FIG. 17
Description: FIG. 17. Volasertib treatment attenuates the WT1-MYCN-PLK1 axis in IPF fibroblasts. IPF fibroblasts were treated with vehicle or volasertib (1 μM) for 48 hours and measured PLK1, MYCN and WT1 protein levels in cell lysates using western blots and normalized to GAPDH. *P<0.05.
as §1

Compound: CC[C@@H]1C(=O)N(C)c2cnc(Nc3ccc(C(=O)N[C@H]4CC[C@H](N5CCN(CC6CC6)CC5)CC4)cc3OC)nc2N1C(C)C [volasertib, N-[trans-4-[4-(cyclopropylmethyl)-1-piperazinyl]cyclohexyl]-4-[[(7R)-7-ethyl-5,6,7,8-tetrahydro-5-methyl-8-(1-methylethyl)-6-oxo-2-pteridinyl]amino]-3-methoxy-benzamide]
- MYCN and PLK1 levels in lungs ([1]; FIG. 19): able to attenuate both MYCN and PLK1 levels
- ECM gene expression including Col1α1, Col3a1, and FN1 ([1]; vs vehicle-treated fibrosis controls, FIG. 18): attenuated ECM gene expression
- binds and inhibits PLK1 (PLK1): at nanomolar doses
- ECM gene expression (Col1α, Col3α1, FN1, αSMA transcripts) (IPF fibroblasts [2]): sufficient to attenuate ECM gene expression
- toxicity by H&E stainings [3]: no toxicity
- therapeutic efficacy against severe fibrotic lung disease [4]: demonstrated therapeutic efficacy
- CDK4 gene expression (IPF fibroblasts [5]): attenuates CDK4 gene expression
- MYCN, WT1 and PLK1 levels [6]: sufficient to attenuate MYCN, WT1 and PLK1 levels

Reference: patent publication US12622911B2, “Methods and compositions for the treatment of pulmonary fibrosis using volasertib” (Children's Hospital Medical Center, priority 2021, dated 2026)
